Experimental data published in US3952051A, “Method for crystallization of diamine dicarboxylate” (Asahi Kasei Kogyo Kabushiki Kaisha, priority 1971, dated 1976).

Experiment: Size of crystals collected after neutralization

**Q.** With hexamethylenediamine adipate as the substance, how does the “Average size of crystals” value (Example 1, from aqueous medium, pH 7.5, 60°C.) read?
**A.** 700 microns

**Q.** And the “Grain size of collected crystals” value (comparative example, methanol as solvent)?
**A.** about 250 microns
